# Reference: patent publication US4732892A, “L-α-amino acids as transdermal penetration enhancers” (priority 1985, dated 1988)
# Like-named read-outs stand apart in the source and are kept apart here.
# Columns and labels:
# [1] = in vitro penetration of levonorgestrel across hairless mouse skin, modified Franz diffusion cell
# Description: In the examples, the steady state rate of penetration, or flux, is indicated by the symbol: Jss. The cumulative amount of drug penetrated is indicated by the Symbol: Q. The lag period to reach steady state is indicated by the symbol: tL. The standard deviation for statistical purposes is abbreviated: S.D. The standard error of the mean for statistical purposes is abbreviated S.E.M. Abbreviation "g" denotes grams, "mg" denotes milligram, "mcg" denotes micrograms and "ng" denotes nanograms.
# Initially, twelve amino acids were selected for evaluation of their effect on the rate of penetration of levonorgestrel through hairless mouse skin. Differing amino acids were selected according to the structure of their side chain so that at least one amino acid from each of the seven different chemical groups was studied. […] These were incorporated into transdermal drug formulations and the corresponding rates of penetration were determined. […] A total of 36 out of a possible 48 formulations were evaluated. The effect of amino acid, pH and ionic species on the rate of penetration was then analyzed.
# The amino acids were dissolved in distilled water and the pH was adjusted by addition of either 0.1 or 1.ON HCl or 1.0N NaOH. Ethanol was then added to give a final ethanol concentration of 40% w/w. The pH was monitored and recorded. […] 1%(w/w) levonorgestrel was suspended in this solvent system. Suspensions were applied to hairless mouse skin as described above.
# The penetration of drug across hairless mouse skin was studied in vitro using a modified Franz diffusion cell apparatus as described by Y. W. Chien, P. R. Keshary, Y. C. Huany and P. P. Sarpotdar in "Comparative Controlled Skin Permeation of Nitroglycerin from Marketed Transdermal Delivery Systems," J. Pharmaceutical Sciences, Vol. 72, No. 8 August 1983, pp. 968-970. […] Samples were withdrawn at predetermined times up to a total of 10 hours.
# Subsequently, rates of penetration were also determined (in hairless mouse skin a described above) for Norleucine, Norvaline and α-Amino-n-Butyric Acid.
# [2] = pH values at which amino acids were tested; cited from earlier work
# [3] = Table II, average of all data at all pH values, amino acid 0.2 M
smiles,measurement,setting,value
"C[C@H](N)C(=O)O [Alanine, L-Alanine]","Jss, steady state rate of penetration of levonorgestrel",[1],0.8553 mcg/cm^2 /hr
same,"Jss, steady state rate of penetration of levonorgestrel",[1]; pH 4.8,0.8553 mcg/cm^2 /hr
"N=C(N)NCCC[C@H](N)C(=O)O [Arginine, L-(+)-Arginine]","Jss, steady state rate of penetration of levonorgestrel",[1]; [3],0.8864 mcg/cm^2 /hr
same,"Jss, steady state rate of penetration of levonorgestrel","[1]; Table VI, at pK2', pH 10.8",1.012 mcg/cm^2 hr
same,"Jss, steady state rate of penetration of levonorgestrel",[1]; pH 2.9,0.688 mcg/cm^2 /hr
same,"Jss, steady state rate of penetration of levonorgestrel",[1]; pH 4.2,0.9590 mcg/cm^2 /hr
same,"Jss, steady state rate of penetration of levonorgestrel",[1]; pH 10.8,1.012 mcg/cm^2 /hr
same,pHISO (isoelectric pH),[2],10.8
"N[C@@H](CC(=O)O)C(=O)O [Aspartic Acid, L-(+)-Aspartic Acid]","Jss, steady state rate of penetration of levonorgestrel",[1]; [3],1.1538 mcg/cm^2 /hr
same,"Jss, steady state rate of penetration of levonorgestrel",[1]; pH 4.4,1.1538 mcg/cm^2 /hr
"N[C@@H](CS)C(=O)O [Cysteine, L-(+)-Cysteine]","Jss, steady state rate of penetration of levonorgestrel",[1],1.6160 mcg/cm^2 /hr
same,"effect on penetration at specific pHs, in words",[1]; Tables III-VI,greatest affect on penetration
same,"overall rate of penetration of levonorgestrel, ranking in words","[1]; average of all pH values, P=0.05",provided the highest rates
same,"Jss, steady state rate of penetration of levonorgestrel",[1]; pH 2.3,2.154 mcg/cm^2 /hr
same,"rate of penetration of levonorgestrel, ranking in words",[1]; pH 2.3 to 3.2 (pK1'),significantly increased rate
same,"Jss, steady state rate of penetration of levonorgestrel",[1]; pH 4.9,1.1635 mcg/cm^2 /hr
same,"rate of penetration of levonorgestrel, ranking in words",[1]; pK2' (pH 8.6-10.8),fastest rate of penetration
"N[C@@H](CCC(=O)O)C(=O)O [Glutamic Acid, L-Glutamic Acid]","Jss, steady state rate of penetration of levonorgestrel","[1]; Table II, average of all data at all pH values, amino acid 0.03 M",0.8277 mcg/cm^2 /hr
same,"Jss, steady state rate of penetration of levonorgestrel","[1]; Table VI, at pK2', pH 9.9",0.450 mcg/cm^2 hr
same,"Jss, steady state rate of penetration of levonorgestrel",[1]; pH 3.8,0.842 mcg/cm^2 /hr
same,"Jss, steady state rate of penetration of levonorgestrel",[1]; pH 4.6,1.1910 mcg/cm^2 /hr
same,"Jss, steady state rate of penetration of levonorgestrel",[1]; pH 9.9,0.450 mcg/cm^2 /hr
same,rate of penetration of levonorgestrel (in words),[1]; pH between 4.0 and 5.0,relatively high rates of penetration
same,pHISO (isoelectric pH),[2],3.8
NCC(=O)O [Glycine],effect of hundred-fold concentration difference on rate of penetration,"[1]; Glycine buffer, previous experimentation",no significant difference in the rate of penetration
same,"Jss, steady state rate of penetration of levonorgestrel","[1]; Table VI, at pK2', pH 9.6",1.003 mcg/cm^2 hr
same,"Jss, steady state rate of penetration of levonorgestrel",[1]; pH 2.4,0.557 mcg/cm^2 /hr
same,"Jss, steady state rate of penetration of levonorgestrel",[1]; pH 4.7,1.2790 mcg/cm^2 /hr
same,"Jss, steady state rate of penetration of levonorgestrel",[1]; pH 6.0,0.532 mcg/cm^2 /hr
same,"Jss, steady state rate of penetration of levonorgestrel",[1]; pH 9.6,1.003 mcg/cm^2 /hr
"CC[C@H](C)[C@H](N)C(=O)O [Isoleucine, L-(+)-Isoleucine]","Jss, steady state rate of penetration of levonorgestrel",[1],1.5542 mcg/cm^2 /hr
same,"effect on penetration at specific pHs, in words",[1],greatest affect on penetration
same,"overall rate of penetration of levonorgestrel, ranking in words",[1],provided the highest rates
same,rate of penetration of levonorgestrel (in words),[1],relatively high rates of penetration
same,"Jss, steady state rate of penetration of levonorgestrel",[1]; pH 2.4,0.921 mcg/cm^2 /hr
same,"Jss, steady state rate of penetration of levonorgestrel",[1]; pH 4.5,1.3328 mcg/cm^2 /hr
same,"Jss, steady state rate of penetration of levonorgestrel",[1]; pH 6,3.167 mcg/cm^2 /hr
"C#C[C@]1(O)CC[C@H]2[C@@H]3CCC4=CC(=O)CC[C@@H]4[C@H]3CC[C@@]21CC [Levonorgestrel, reference compound]",effect of pH on rate of penetration,[1]; amino acid present in the formulation,not affected significantly by changing pH
same,Average rate of penetration of levonorgestrel in the presence of amino acids,[1]; pH 2.5,1.0980 mcg/cm^2 /hr
same,Average rate of penetration of levonorgestrel in the presence of amino acids,[1]; pH 4.5,1.1279 mcg/cm^2 /hr
same,Average rate of penetration of levonorgestrel in the presence of amino acids,[1]; pH 6.1,1.2798 mcg/cm^2 /hr
same,Average rate of penetration of levonorgestrel in the presence of amino acids,[1]; pH 9.6,1.0598 mcg/cm^2 /hr
"O=C(O)[C@@H]1CCCN1 [Proline, L-(-)-Proline]","Jss, steady state rate of penetration of levonorgestrel",[1],0.8462 mcg/cm^2 /hr
same,"Jss, steady state rate of penetration of levonorgestrel",[1]; pH 2.3,0.765 mcg/cm^2 /hr
same,"Jss, steady state rate of penetration of levonorgestrel",[1]; pH 4.6,1.0863 mcg/cm^2 /hr
same,"Jss, steady state rate of penetration of levonorgestrel",[1]; pH 6.7,0.688 mcg/cm^2 /hr
"N[C@@H](CO)C(=O)O [Serine, L-(-)-Serine]","Jss, steady state rate of penetration of levonorgestrel",[1],0.8628 mcg/cm^2 /hr
same,"Jss, steady state rate of penetration of levonorgestrel",[1]; pH 4.7,1.1287 mcg/cm^2 /hr
same,"Jss, steady state rate of penetration of levonorgestrel",[1]; pH 5.7,0.896 mcg/cm^2 /hr
"N[C@@H](Cc1c[nH]c2ccccc12)C(=O)O [Tryptophan, L-(-)-Tryptophan]","Jss, steady state rate of penetration of levonorgestrel",[1],0.6033 mcg/cm^2 /hr
same,"Jss, steady state rate of penetration of levonorgestrel",[1]; pH 3.2,0.641 mcg/cm^2 /hr
same,"Jss, steady state rate of penetration of levonorgestrel",[1]; pH 4.7,0.6020 mcg/cm^2 /hr
same,"Jss, steady state rate of penetration of levonorgestrel",[1]; pH 6.5,0.567 mcg/cm^2 /hr
"CC(C)[C@H](N)C(=O)O [Valine, L-(+)-Valine]","Jss, steady state rate of penetration of levonorgestrel",[1],1.8006 mcg/cm^2 /hr
same,"effect on penetration at specific pHs, in words",[1],greatest affect on penetration
same,"Jss, steady state rate of penetration of levonorgestrel",[1]; pH 2.4,1.492 mcg/cm^2 /hr
same,"Jss, steady state rate of penetration of levonorgestrel",[1]; pH 4.7,1.7903 mcg/cm^2 /hr
same,"Jss, steady state rate of penetration of levonorgestrel",[1]; pH 5.9,2.276 mcg/cm^2 /hr
